The text below walks through data of paper PMC11243693, “Synthesis and Biological Evaluation of New Compounds with Nitroimidazole Moiety” (Molecules, 2024).

The subject of data set [1] is Staphylococcus aureus ATCC 25923. As to the kind of experiment: Broth microdilution, S. aureus ATCC 25923. It is filed as cell-based. The conditions noted are these: Sa 25923. As for the experimental part: (§1) The antibacterial activity of the obtained thiosemicarbazides and hydrazide–hydrazones was determined by evaluating their ability to inhibit microbial growth in vitro using the broth microdilution method, according to the guidelines of the European Committee on Antimicrobial Susceptibility Testing (EUCAST). The method involved the preparation of microbial suspensions with a standardized density of 0.5 on the McFarland scale (equivalent to 1.5 × 10^8 colony-forming units/mL for bacteria and […] for fungi). A solution of the test substances was then prepared (initial concentration 1000 µg/mL, diluted in sterile Mueller-Hinton broth for bacteria or Mueller-Hinton with 2% glucose for fungi). The test was carried out in 96-well polystyrene flat-bottom plates (Medlab, Poland) with 100 µL of appropriate sterile microbiological medium in each well. The first wells were filled with 200 µL of the test substance, diluted to the initial concentration, and then double-decreasing dilutions were made under aseptic conditions using an automatic pipette. The final step was the addition of a 10-fold diluted microbial suspension of 2 µL. At the same time, the following controls were included: (a) medium control (100 µL of sterile medium without microorganisms added), (b) microbial viability control, (c) test substance control (dilutions without added micro-organisms), (d) positive control of the drug used in the clinic. The plates thus prepared were incubated for 18 ± 2 h at 35 ± 2 °C under conditions optimal for the growth of the test microorganisms. After incubation, the spectrophotometric absorbance at 570 nm in each well of the plate was read. The aim of this part of the study was to determine two parameters: the minimum inhibitory concentration (MIC) and the minimum bactericidal or fungicidal concentration (MBC/MFC) of the test compound. […] The MBC value was determined by adding 5 µL of the contents of each well of the plate to solid sterile MHA or MHA + 2%glc medium for bacteria and fungi, respectively. The area on the plate where 99.9% inhibition of microbial growth was observed indicated the lethal concentration. In addition, the quotient MBC(MFC)/MIC could be determined to assess the nature of the activity of the test substance. If MBC(MFC)/MIC was <4, the test substance was bactericidal/fungicidal, whereas if MBC(MFC)/MIC was ≥4, it was bacteriostatic/fungistatic. Amoxicillin (Glentham Life Sciences, USA) and nystatin (Glentham Life Sciences, USA) were used as the controls for this assay.
(§2) The test was performed either on bacteria, comprising: Gram-positive (Staphylococcus aureus ATCC 25923, Staphylococcus aureus ATCC 6538, Staphylococcus aureus ATCC 43300 methicillin-resistant MRSA, Staphylococcus epidermidis ATCC 12228, Micrococcus luteus ATCC 10240, Bacillus subtilis ATCC 6633, Bacillus cereus ATCC 10876) and Gram-negative (Escherichia coli ATCC 25922, Pseudomonas aeruginosa ATCC 27853, Proteus mirabilis ATCC 12453, Klebsiella pneumoniae ATCC 13883) or yeast (Candida parapsilosis ATCC 22019, Candida glabrata ATCC 90030, Candida krusei ATCC 14243, Candida glabrata ATCC 15126, Candida tropicalis ATCC 1369, Candida auris CDC B11903, Candida lusitaniae ATCC 3449) reference strains from the American Type Culture Collection (ATCC) or the Centers for Disease Control and Prevention (CDC).
(In general: Broth dilution looks for growth in wells or tubes with falling amounts of substance.)

Data set [2] has as its system Staphylococcus aureus ATCC 6538. In words: Broth microdilution, S. aureus ATCC 6538. It is filed as cell-based. The settings on record: Sa 6538. As for the experimental part: as §1, §2
Data set [3] has as its system Staphylococcus aureus ATCC 43300 methicillin-resistant MRSA. In words: Broth microdilution, S. aureus ATCC 43300 MRSA. The settings on record: Sa 43300 MRSA. It is filed as cell-based. As for the experimental part:
as §1, §2

Data set [4] concerns Staphylococcus epidermidis ATCC 12228. As to the kind of experiment: Broth microdilution, S. epidermidis ATCC 12228. It is filed as cell-based. The settings on record: Se 12228. As for the experimental part:
as §1, §2

The test system of data set [5] is Micrococcus luteus ATCC 10240. In words: Broth microdilution, M. luteus ATCC 10240. It is filed as cell-based. The settings on record: Ml 10240. As for the experimental part: as §1, §2
For data set [6], the system named is Bacillus subtilis ATCC 6633. In words: Broth microdilution, B. subtilis ATCC 6633. The class given is cell-based. The settings on record: Bs 6633. As for the experimental part:
as §1, §2

Data set [7] has as its system Bacillus cereus ATCC 10876. In words: Broth microdilution, B. cereus ATCC 10876. It is filed as cell-based. The conditions noted are these: Bc 10876. As for the experimental part: as §1, §2
Data set [8] relates to Candida parapsilosis ATCC 22019. As to the kind of experiment: Broth microdilution, C. parapsilosis ATCC 22019. It is filed as cell-based. The conditions noted are these: Cp 22019. As for the experimental part:
as §1, §2

The subject of data set [9] is Candida glabrata ATCC 90030. In words: Broth microdilution, C. glabrata ATCC 90030. The settings on record: Cg 90030. It is filed as cell-based. As for the experimental part:
as §1, §2

The test system of data set [10] is Candida krusei ATCC 14243. As to the kind of experiment: Broth microdilution, C. krusei ATCC 14243. It is filed as cell-based. The settings on record: Ck 14243. As for the experimental part: as §1, §2
Data set [11] has as its system Candida glabrata ATCC 15126. As to the kind of experiment: Broth microdilution, C. glabrata ATCC 15126. The settings on record: Cg 15126. The class given is cell-based. As for the experimental part:
as §1, §2

Data set [12] deals with Candida tropicalis ATCC 1369. As to the kind of experiment: Broth microdilution, C. tropicalis ATCC 1369. The class given is cell-based. The conditions noted are these: Ct 1369. As for the experimental part: as §1, §2
In a further data set the test system is Candida auris CDC B11903. As to the kind of experiment: Broth microdilution, C. auris CDC B11903. It is filed as cell-based. The conditions noted are these: Ca B11903. As for the experimental part: as §1, §2
Data set [13] concerns Candida lusitaniae ATCC 3449. As to the kind of experiment: Broth microdilution, C. lusitaniae ATCC 3449. It is filed as cell-based. The settings on record: Cl 3449. As for the experimental part:
as §1, §2

Where [14] appears, read: <4 bactericidal, ≥4 bacteriostatic.

Each structure is given as a SMILES string. In brackets after ≈: the same amount, converted by molar mass.

Consider `Cn1cc([N+](=O)[O-])nc1C(=O)NN=Cc1ccc(C(F)(F)F)cc1` [Compound 26, 1-methyl-4-nitro-N’-[(4-trifluoromethylphenyl)methylidene]-1H-imidazole-2-carbohydrazide], for which the melting point (usually the temperature, or range, at which the solid turns liquid) fell in the range of 208 to 210 °C.
`Cn1cc([N+](=O)[O-])nc1C(=O)NN=Cc1ccccc1Cl` [Compound 20, N’-[(2-chlorophenyl)methylidene]-1-methyl-4-nitro-1H-imidazole-2-carbohydrazide] had a melting point of 234 to 236 °C.
For `COc1ccc(C=NNC(=O)c2nc([N+](=O)[O-])cn2C)cc1` [Compound 25, N’-[(4-methoxyphenyl)methylidene]-1-methyl-4-nitro-1H-imidazole-2-carbohydrazide], the melting point is 224 to 226 °C.
Still for that read-out and setting: next, `Cn1cc([N+](=O)[O-])nc1C(=O)NN=Cc1cccc(O)c1` [Compound 27, N’-[(3-hydroxyphenyl)methylidene]-1-methyl-4-nitro-1H-imidazole-2-carbohydrazide]: 208 to 210 °C.
With `COc1ccccc1C=NNC(=O)c1nc([N+](=O)[O-])cn1C` [Compound 23, N’-[(2-methoxyphenyl)methylidene]-1-methyl-4-nitro-1H-imidazole-2-carbohydrazide], the melting point lay in the range of 205 to 208 °C.
The same measure, in the same setting: the result for `Cn1cc([N+](=O)[O-])nc1C(=O)NN=Cc1ccccc1F` [Compound 22, N’-[(2-fluorophenyl)methylidene]-1-methyl-4-nitro-1H-imidazole-2-carbohydrazide] reads 214 to 217 °C; that for `COc1cccc(C=NNC(=O)c2nc([N+](=O)[O-])cn2C)c1` [Compound 24, N’-[(3-methoxyphenyl)methylidene]-1-methyl-4-nitro-1H-imidazole-2-carbohydrazide], 208 to 210 °C; that for `Cn1cc([N+](=O)[O-])nc1C(=O)NN=Cc1ccccc1` [Compound 19, 1-methyl-4-nitro-N’-(phenylmethylidene)-1H-imidazole-2-carbohydrazide], 280 to 284 °C.
`Cn1cc([N+](=O)[O-])nc1C(=O)NN=Cc1cccc(Cl)c1` [Compound 21, N’-[(3-chlorophenyl)methylidene]-1-methyl-4-nitro-1H-imidazole-2-carbohydrazide]: the melting point is 276 to 278 °C.
With `COc1cc(Cl)ccc1C=NNC(=O)c1nc([N+](=O)[O-])cn1C` [Compound 29, N’-[(4-chloro-2-methoxyphenyl)methylidene]-1-methyl-4-nitro-1H-imidazole-2-carbohydrazide], the melting point was in the range of 234 to 237 °C.
As for `Cn1cc([N+](=O)[O-])nc1C(=O)NNC(=S)Nc1ccccc1F` [Compound 6], the MBC (as a rule, the lowest tested concentration that kills the bacteria rather than only halting them) is reported as >1000 µg/mL in data set [1]; >1000 µg/mL in data set [2]; >1000 µg/mL in data set [3]; 500 µg/mL (≈ 1480 µM) in [4]; 250 µg/mL (≈ 739 µM) in data set [5]; 500 µg/mL (≈ 1480 µM) in data set [6]. In addition, the MBC in [7] worked out at 1000 µg/mL (≈ 2960 µM). Also, the minimal inhibitory concentration (MIC) (usually the lowest concentration that inhibits growth of the organism) was 250 µg/mL (≈ 739 µM) in data set [1]; 1000 µg/mL (≈ 2960 µM) in [2]; 1000 µg/mL (≈ 2960 µM) in [3]; 500 µg/mL (≈ 1480 µM) in data set [4]; 250 µg/mL (≈ 739 µM) in data set [5]; 250 µg/mL (≈ 739 µM) in data set [6]. For the same compound, the MIC in data set [7] is 500 µg/mL (≈ 1480 µM); in [8] it was 1000 µg/mL (≈ 2960 µM); in [9] it was >1000 µg/mL; in data set [10], >1000 µg/mL; in [11], >1000 µg/mL; in data set [12], 250 µg/mL (≈ 739 µM). Also, the minimum inhibitory concentration (MIC) (against Candida auris CDC B11903; in data set [13]) was >1000 µg/mL in each case. The “MBC/MIC Ratio” value came to 1 in data set [4] (setting [14]), 1 in data set [5] (setting [14]), 2 in data set [6] (setting [14]) and 2 in [7] (setting [14]). Also, the MFC in [8] and in [12] was >1000 µg/mL in each case.
